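Method: 48-hour compound exposure of cells in 96-well plates, five concentrations, linear interpolation of endpoints. Abbreviation: GI50, concentration required for 50% inhibition of growth.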 The source made the active and inactive calls. No stated cut-off is given here; in the data, active = GI50 up to about 1.1 µM and inactive = higher.
How the values were obtained:
Test in all cases: NCI tumour cell line growth inhibition, 48 h
MDA-MB-231 = test system: MDA-MB-231
CAKI-1 = test system: CAKI-1
T47D = test system: T47D
HCT-116 = test system: HCT-116
BT-549 = test system: BT-549
OVCAR-5 = test system: OVCAR-5
DU-145 = test system: DU-145
LOX IMVI = test system: LOX IMVI
PC-3 = test system: PC-3
HOP-62 = test system: HOP-62
A549 = test system: A549
SK-OV-3 = test system: SK-OV-3
M14 = test system: M14
KM-20L2 = test system: KM-20L2
TK-10 = test system: TK-10
OVCAR-3 = test system: OVCAR-3
XF498 = test system: XF498
NCI-H522 = test system: NCI-H522
SNB-75 = test system: SNB-75
SNB-19 = test system: SNB-19
IGROV-1 = test system: IGROV-1
M19-MEL = test system: M19-MEL
UACC-62 = test system: UACC-62
HT-29 = test system: HT-29
786-0 = test system: 786-0
NCI-H23 = test system: NCI-H23
Malme-3M = test system: Malme-3M
DMS-114 = test system: DMS-114
SNB-78 = test system: SNB-78
ACHN = test system: ACHN
HOP-18 = test system: HOP-18
Hs-578T = test system: Hs-578T
SK-MEL-2 = test system: SK-MEL-2
MDA-N = test system: MDA-N
LXFL 529 = test system: LXFL 529
HOP-92 = test system: HOP-92
U-251 = test system: U-251
OVCAR-4 = test system: OVCAR-4
SN12C = test system: SN12C
RXF 631 = test system: RXF 631
MCF7 = test system: MCF7
RXF 393 = test system: RXF 393
SF-295 = test system: SF-295
HCT-15 = test system: HCT-15
DMS-273 = test system: DMS-273
A498 = test system: A498
DLD-1 = test system: DLD-1
SR = test system: SR
UO-31 = test system: UO-31
NCI-H460 = test system: NCI-H460
UACC-257 = test system: UACC-257
RPMI-8226 = test system: RPMI-8226
HCC 2998 = test system: HCC 2998
MDA-MB-435 = test system: MDA-MB-435
KM12 = test system: KM12
K562 = test system: K562
SK-MEL-5 = test system: SK-MEL-5
SF-539 = test system: SF-539
NCI-H226 = test system: NCI-H226

C[N+](C)(C)CC1CCC(C[N+](C)(C)C)C1=O (centres undefined)
GI50 (MDA-MB-231): 19.6 µM (inactive) | GI50 (CAKI-1): 0.668 µM (active) | GI50 (T47D): 3.42 µM (inactive) | GI50 (HCT-116): 1.71 µM (inactive) | GI50 (BT-549): 17 µM (inactive) | GI50 (OVCAR-5): 7.28 µM (inactive) | GI50 (DU-145): 15.5 µM (inactive) | GI50 (LOX IMVI): 4.84 µM (inactive) | GI50 (PC-3): 17.2 µM (inactive) | GI50 (HOP-62): 19.2 µM (inactive) | GI50 (A549): 18.7 µM (inactive) | GI50 (SK-OV-3): 23.4 µM (inactive) | GI50 (M14): 1.72 µM (inactive) | GI50 (KM-20L2): 3.18 µM (inactive) | GI50 (TK-10): 3.3 µM (inactive) | GI50 (OVCAR-3): 2.39 µM (inactive) | GI50 (XF498): 2.03 µM (inactive) | GI50 (NCI-H522): 0.2 µM (active) | GI50 (SNB-75): 1.95 µM (inactive) | GI50 (SNB-19): 17.9 µM (inactive) | GI50 (IGROV-1): 7.94 µM (inactive) | GI50 (M19-MEL): 1.94 µM (inactive) | GI50 (UACC-62): 8.53 µM (inactive) | GI50 (HT-29): 1.56 µM (inactive) | GI50 (786-0): 1.91 µM (inactive) | GI50 (NCI-H23): 4.22 µM (inactive) | GI50 (Malme-3M): 1.08 µM (active) | GI50 (DMS-114): 2.34 µM (inactive) | GI50 (SNB-78): 2.4 µM (inactive) | GI50 (ACHN): 1.82 µM (inactive) | GI50 (HOP-18): 0.794 µM (active) | GI50 (Hs-578T): 38.6 µM (inactive) | GI50 (SK-MEL-2): 14.9 µM (inactive) | GI50 (MDA-N): 4.94 µM (inactive) | GI50 (LXFL 529): 0.555 µM (active) | GI50 (HOP-92): 0.92 µM (active) | GI50 (U-251): 9.12 µM (inactive) | GI50 (OVCAR-4): 2.38 µM (inactive) | GI50 (SN12C): 4.12 µM (inactive) | GI50 (RXF 631): 5.47 µM (inactive) | GI50 (MCF7): 1.75 µM (inactive) | GI50 (RXF 393): 1.91 µM (inactive) | GI50 (SF-295): 20.5 µM (inactive) | GI50 (HCT-15): 1.78 µM | GI50 (DMS-273): 2.16 µM (inactive) | GI50 (A498): 6.78 µM (inactive) | GI50 (DLD-1): 2.2 µM (inactive) | GI50 (SR): 0.4 µM (active) | GI50 (UO-31): 4.34 µM (inactive) | GI50 (NCI-H460): 24.3 µM (inactive) | GI50 (UACC-257): 2.92 µM (inactive) | GI50 (RPMI-8226): 0.328 µM (active) | GI50 (HCC 2998): 8.63 µM (inactive) | GI50 (MDA-MB-435): 16.3 µM (inactive) | GI50 (KM12): 4.65 µM (inactive) | GI50 (K562): 0.359 µM (active) | GI50 (SK-MEL-5): 9.02 µM (inactive) | GI50 (SF-539): 7.74 µM (inactive) | GI50 (NCI-H226): 12.9 µM (inactive)

Source: ChEMBL document CHEMBL1201862, “PubChem BioAssay data set” (2004)
